This passage reports GI50 and TGI results from PubChem BioAssay (NCI).

SMILES strings stand for the structures.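 Grown in 96-well plates, cells were treated for 48 hours with each compound at five concentrations. Insufficient inhibition: endpoint recorded as highest concentration tested. GI50: concentration for 50% inhibition of growth. TGI marks complete inhibition of growth.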

Some test systems named below: HOP-18 NSCLC; M19-MEL melanoma; LXFL 529 NSCLC; XF 498 CNS; HS 578T breast; DU-145 prostate; BT-549 breast; T-47D breast; MDA-MB-231 breast; NCI/ADR-RES ovarian.
Holding throughout (experiment): NCI anticancer screen, dose series, 48 h

Consider `Cn1nnnc1[N-]Cc1ccccc1.[Au+].c1ccc([PH+](c2ccccc2)c2ccccc2)cc1`, for which the GI50 is 2.25 µM in the test on HOP-18 NSCLC, 3.32 µM with M19-MEL melanoma and 1.45 µM in the test with LXFL 529 NSCLC. The TGI came out at 4.98 µM with HOP-18 NSCLC, 25.3 µM with M19-MEL melanoma and 2.79 µM in the test with LXFL 529 NSCLC.
On to `CC1=C(N2CC2)C(=O)c2nc3n(c2C1=O)CCC3O` (centres undefined), for which the TGI in the test on XF 498 CNS was 29.8 µM; with HOP-18 NSCLC, above 100 µM; in the test with M19-MEL melanoma it was 3.57 µM; with HS 578T breast, 0.0585 µM; in the test on LXFL 529 NSCLC, 2.44 µM; with DU-145 prostate, 0.0717 µM. The TGI with BT-549 breast came out at 0.0377 µM; with T-47D breast, 2.04 µM.
Take `CC(O)C(NC(=O)C(CS)NC(=O)C(CO)NC(=O)C(CCCCN)NC(=O)C(Cc1c[nH]c2ccccc12)NC(=O)C(Cc1ccc(O)cc1)NC(=O)C(CS)NC(=O)C(N)Cc1ccccc1)C(N)=O` (centres undefined): the TGI with XF 498 CNS was 53.8 µM; in the test with HOP-18 NSCLC, 46.6 µM; in the test with M19-MEL melanoma, 70.9 µM; in the test with HS 578T breast it was above 25 µM; with MDA-MB-231 breast, above 25 µM; with DU-145 prostate, above 25 µM. The TGI in the test on T-47D breast and in the test on NCI/ADR-RES ovarian was above 25 µM each time.
Consider `Cc1ccc(-n2c(C)nc3c2C(=O)c2ccccc2C3=O)cc1`, for which the TGI in the test with XF 498 CNS was above 100 µM; in the test with M19-MEL melanoma, 25.7 µM; with LXFL 529 NSCLC, above 100 µM.
In the case of `Cn1cc(NC(=O)c2cc(NC(=O)CCCCCC(=O)Nc3cc(C(=O)Nc4cc(C(=O)NCCC(=N)N)n(C)c4)n(C)c3)cn2C)cc1C(=O)NCCC(=N)N`, the TGI with XF 498 CNS was above 100 µM; with HOP-18 NSCLC, above 100 µM; in the test on M19-MEL melanoma, 92.8 µM; with LXFL 529 NSCLC, above 100 µM.
On to `Cc1ccc(S(=O)(=O)ON/N=C2/C3OC3[C@@H]3CCCC[C@H]23)cc1` (some centres undefined), for which the TGI in the test with XF 498 CNS, in the test on HOP-18 NSCLC, in the test on M19-MEL melanoma and in the test on LXFL 529 NSCLC was above 100 µM each time.
Take `c1c[nH]c(Cc2ncc(Cc3cnc[nH]3)[nH]2)n1`: the TGI in the test on XF 498 CNS is above 100 µM; in the test with HOP-18 NSCLC, above 100 µM; with M19-MEL melanoma, 55.8 µM; in the test on LXFL 529 NSCLC it was above 100 µM.
Turning to `Nc1ccc2c(c1)[O][Sn]([c]1ccccc1)([c]1ccccc1)[O]C2=O`, the GI50 in the test with HOP-18 NSCLC was 15.6 µM; in the test with M19-MEL melanoma, 11 µM; in the test on HS 578T breast, 4.06 µM; in the test on LXFL 529 NSCLC it was 1.51 µM; in the test on MDA-MB-231 breast, 5.11 µM; in the test with DU-145 prostate it was 15.5 µM. In addition, the GI50 in the test on BT-549 breast is 1.98 µM; in the test with NCI/ADR-RES ovarian it was 9.08 µM. In addition, the TGI turned out to be 29 µM in the test on HOP-18 NSCLC; 23.9 µM with M19-MEL melanoma; 22.2 µM with HS 578T breast; 3.12 µM in the test on LXFL 529 NSCLC; 11.6 µM in the test on MDA-MB-231 breast; 28.9 µM in the test on DU-145 prostate. The TGI was 6.4 µM in the test on BT-549 breast and 30.2 µM with NCI/ADR-RES ovarian.
For `O=C1c2cccc3cc([N+](=O)[O-])cc(c23)C(=O)N1CCCN1CCN(CCCN2C(=O)c3cccc4cc([N+](=O)[O-])cc(c34)C2=O)CC1`, the TGI in the test on XF 498 CNS is 4.06 µM; in the test on HOP-18 NSCLC, 7.81 µM; in the test on M19-MEL melanoma it was 2.56 µM; in the test on LXFL 529 NSCLC, above 100 µM.
Take `CC(C)(C)N=CN1CCC(C(c2ccccc2)c2ccccc2)CC1`: the TGI in the test with XF 498 CNS, in the test with HOP-18 NSCLC and in the test with M19-MEL melanoma was above 100 µM in each case.
In the case of `COc1ccc(/C=[N+](\[O-])[C@H](COCc2ccccc2)c2ccccc2)cc1`, the TGI in the test with XF 498 CNS, with HOP-18 NSCLC and in the test with LXFL 529 NSCLC was above 100 µM throughout.
Turning to `COC(=O)/C(=N/NC(C)(C)C)C(C(=O)C=C(C)C)C(=O)C(=O)Nc1ccc(Cl)cc1C` (centres undefined), the TGI with XF 498 CNS, in the test with M19-MEL melanoma and in the test with LXFL 529 NSCLC was above 100 µM throughout.
In the case of `CCOC(=O)c1c2ccc(/C=C/C(=O)OC)ccc-2c(C(=O)OCC)c1N`, the TGI in the test with HOP-18 NSCLC, in the test with M19-MEL melanoma and in the test with LXFL 529 NSCLC was above 100 µM each time.
Regarding `CCCN(CCC)c1c([N+](=O)[O-])cc(S(N)(=O)=O)cc1[N+](=O)[O-]`, the TGI with XF 498 CNS was 30.2 µM; in the test with HOP-18 NSCLC it was 36.2 µM; in the test with M19-MEL melanoma, 40.6 µM; in the test with LXFL 529 NSCLC, 30 µM.
`CCOC(=O)C(=O)Nc1c(C)cccc1CC`: the TGI in the test on XF 498 CNS, in the test with HOP-18 NSCLC, in the test with M19-MEL melanoma and with LXFL 529 NSCLC was above 100 µM throughout.
With `CC(C)(C)C([O-])=C1C(=O)c2ccccc2C1=O.CC(C)(C)C([O-])=C1C(=O)c2ccccc2C1=O.CC[O-].CC[O-].[Ti+4]`, the GI50 in the test on HOP-18 NSCLC was 18.2 µM; in the test with M19-MEL melanoma, 31.5 µM; in the test on LXFL 529 NSCLC it was 39.9 µM. The TGI in the test with HOP-18 NSCLC is 83.3 µM; in the test with M19-MEL melanoma, above 100 µM; in the test on LXFL 529 NSCLC it was above 100 µM.
`COC(=O)c1ccc(OCc2ccc3oc(=O)c(-c4ccccc4)nc3c2)cc1`: the TGI with XF 498 CNS, in the test on HOP-18 NSCLC and with M19-MEL melanoma was above 100 µM each time.
For `C=CCN(N=O)C(=O)N(CCC)CCCC(NC(C)=O)C(=O)NCc1ccccc1` (centres undefined), the TGI in the test on XF 498 CNS, in the test on HOP-18 NSCLC, in the test on M19-MEL melanoma and in the test on LXFL 529 NSCLC was above 100 µM each time.
On to `CCOC(=O)/C=C(/CN1C(=O)c2ccccc2C1=O)c1ccccc1`, for which the TGI with XF 498 CNS, in the test on HOP-18 NSCLC, in the test with M19-MEL melanoma and in the test with LXFL 529 NSCLC was above 100 µM throughout.
